The values that follow come from paper PMC4830886, “Extended evaluation on the ES-D3 cell differentiation assay combined with the BeWo transport model, to predict relative developmental toxicity of triazole compounds” (Archives of Toxicology, 2015).

A word on the Papp: it is a coefficient for how fast a substance crosses the barrier. A high value points to fast passage.

Data set [1] in a line: in vitro BeWo transport model (placental transfer). To be noted: human. The procedure: (§1) To study placental transfer of test compounds, BeWo transport experiments were performed as described previously (Li et al. [2013]). Briefly, BeWo b30 cells (passages 27–45) were cultured in DMEM (Zwijndrecht, The Netherlands), supplemented with 10 % (v/v) heat-inactivated FCS (HyClone-Perbio, Etten-Leur, The Netherlands), 10,000 U/ml penicillin, 10 mg/ml streptomycin and 2 mM L-glutamine. The cells were seeded at a density of 1 × 10^5 cells/cm^2 on transwell® polycarbonate membranes (12 mm diameter, 0.4 μm pore size) (VWR International BV, Amsterdam, The Netherlands) coated with human placental collagen. The medium (0.5-ml apical compartment, 1.5-ml basolateral compartment) was replaced daily. At day 6 postseeding, the BeWo b30 cell layers were used for transport experiments. The barrier-forming capacity of the BeWo cell layers was evaluated by measuring the transepithelial electrical resistance (TEER) of the cell monolayer using a Millicell ERS-2 Volt-Ohm Meter (Millipore, USA) at day 6 postseeding as described previously (Li et al. [2013]). Only the cell layers showing TEER values between 80 and 100 Ω cm^2 were used for transport experiments.
(§2) Transport experiments were initiated by adding 0.5 ml of transport buffer Hank’s balanced salt solution (HBSS, Invitrogen, Breda, The Netherlands) containing the test compound, being 0594, 0595, 0596, 0599, 0600 and 0618, dissolved in DMSO (final solvent concentration 0.5 % DMSO), at concentration of 50 μM, to the apical compartment and 1.5 ml transport buffer to the basolateral compartment. Subsequently, the plate was incubated in a humidified atmosphere with 5 % CO2 at 37 °C. After 15, 30, 60 and 90 min, a sample of 0.2 ml was taken from the basolateral compartment and replaced by an equal volume of transport buffer. At the end of each experiment, a 0.2-ml sample was also taken from the apical compartment. Subsequently, the filters with the BeWo b30 cell layers were washed three times with PBS, cut out of the insert, dissolved in 0.25 ml 65 % (v/v) methanol and sonificated for 15 min in a Bandelin Sonorex RK100 (Berlin, Germany) in order to determine the amount of compound accumulated in the cells. After each experiment, mass balance calculations were performed. In each transport study, amoxicillin and antipyrine were included as control and reference compounds. Amoxicillin transport was included to assess for monolayer integrity since it is a compound known to be transported only to a limited extent across the placenta, whereas antipyrine was included as a control for optimal transport and a reference compound to enable calculation of relative transport rates (Li et al. [2013]). The transport of the six test compounds, as well as the reference compounds amoxicillin and antipyrine, through the permeable membrane of the transwell filter in the absence of BeWo cells was determined as well. […] For each test compound, three independent experiments were performed, with three technical replicates per experiment.
(§3) Samples were analyzed using high-performance liquid chromatography (HPLC) to quantify the amount of test compound in order to determine the transport rate and to perform mass balance calculations. The HPLC system used consisted of a Waters (Milford, MA) 600 controller and a 600 pump, equipped with a photodiode array detector set to record absorption of wavelengths between 200 and 400 nm. A Waters 717 plus autosampler was used for sample injection. The temperature of the autosampler was kept at 7 °C.
(§4) For analysis of all compounds, 50 μl sample was injected to a C18 5 μm reverse-phase column (150 mm × 4.6 mm I.D.) with a guard column (7.5 mm × 4.6 mm I.D.) (Alltech, Bergen op Zoom, The Netherlands). The mobile phase used for analysis of all the test compounds consisted of (A) 0.1 % trifluoroacetic acid in nanopure water and (B) HPLC-grade acetonitrile. Elution was at a flow rate of 0.8 ml/min, starting at 22 % B with a linear increase to 100 % B in 8 min.

The test system of another data set is BeWo b30 cell layers. Briefly: in vitro BeWo transport model (placental transfer). The following applies: BeWo cells, 50 μM (25 nmol) apical, at 90 min. The procedure: as §1, §2, §3, §4

In data set [1], `CC(c1nc(-c2ccc(C#N)cc2)cs1)C(O)(Cn1cncn1)c1ccc(F)cc1` (stereo not shown) [compound 0596, 4-{2-[2-(4-Fluoro-phenyl)-2-hydroxy-1-methyl-3-[1,2,4]triazol-1-yl-propyl]-thiazol-4-yl}-benzonitrile] displayed a Papp at 30 min, 50 μM of 24.4 ± 2.7 ×10⁻⁶ cm/s. In the data set on BeWo b30 cell layers, the “Intracellular accumulation (% of added amount)” value is 12 % of added amount.
On the same counts, the results for `CC1CC(C)OC(Cn2cncn2)(c2ccc(Oc3ccc(Cl)cc3)cc2Cl)O1` (stereo not shown) [compound 0600, 1-[[2-[2-Chloro-4-(4-chlorophenoxy)phenyl]-4,6-dimethyl-1,3-dioxan-2-yl]methyl]-1,2,4-triazole] are 7.9 ± 1 ×10⁻⁶ cm/s and 66 % of added amount.
On the same counts, the results for `CC(c1nc(-c2ccc(C#N)cc2)cs1)C(O)(Cn1ccnc1)c1ccc(F)cc1` (stereo not shown) [compound 0599, 4-[2-[2-(4-Fluorophenyl)-2-hydroxy-3-imidazol-1-yl-1-methyl-propyl]thiazol-4-yl]benzonitrile] are 18.4 ± 1.1 ×10⁻⁶ cm/s and 22 % of added amount.
Compound `OC(c1cccnc1)c1c(-c2ccc(F)cc2F)noc1-c1ccc(Cl)cc1F` (stereo not shown) [compound 0594, [5-(4-Chloro-2-fluoro-phenyl)-3-(2,4-difluoro-phenyl)-isoxazol-4-yl]-pyridin-3-yl-methanol] had a Papp at 30 min, 50 μM in data set [1] of 11.5 ± 2.6 ×10⁻⁶ cm/s. Moreover, the “Intracellular accumulation (% of added amount)” value with BeWo b30 cell layers is on record as 24 % of added amount.
Turning to `OC(c1cccnc1)c1c(-c2ccc(F)cc2F)csc1-c1ccc(F)cc1F` (stereo not shown) [compound 0595, [2,4-Bis-(2,4-difluoro-phenyl)-thiophen-3-yl]-pyridin-3-yl-methanol], the apparent permeability (Papp) at 30 min, 50 μM in data set [1] was 3 ± 0.4 ×10⁻⁶ cm/s. Moreover, in the data set on BeWo b30 cell layers, the “Intracellular accumulation (% of added amount)” value is on record as 79 % of added amount.
